Measured values from patent publication US4552879A, “Benzoheterocyclic compounds and pharmaceutical composition thereof” (Otsuka Pharmaceutical Co., Ltd., priority 1980, dated 1985).
≈ marks a conversion by molar mass, not a printed value. Read-outs that look alike come from different tables or passages of the source.

Key:
Assay in all cases: Minimum inhibitory concentration, serial dilution method on agar plate
Assay type in all cases: cell-based
[1] = system: Pseudomonas putida 12996; conditions: read-out: Minimum Inhibitory Concentration
[2] = system: Staphylococcus aureus No. 80
[3] = system: Staphylococcus aureus E-46
[4] = system: Staphylococcus aureus B-5
[5] = system: Staphylococcus aureus 7447
[6] = system: Staphylococcus aureus 90124
[7] = system: Staphylococcus epidermidis ATCC 12228
[8] = system: Micrococcus lysodeikticus IAM 1313; conditions: Micrococcus luteus
[9] = system: Sarcina lutea PCI 1001

## CC1CCc2c(N3CCC(O)CC3)c(F)cc3c(=O)c(C(=O)O)cn1c23 (stereo not drawn) [Compound 1, 9-Fluoro-8-(4-hydroxy-1-piperidyl)-5-methyl-6,7-dihydro-1-oxo-1H,5H-benzo[ij]quinolizine-2-carboxylic acid]
[1]; Pseudomonas putida, 12996, 1×10^6 cells/ml
  MIC: 6.25 µg/mL (≈ 17.3 µM)
[1]; Pseudomonas putida, 12996, 1×10^8 cells/ml
  MIC: 6.25 µg/mL (≈ 17.3 µM)
[2]; NO.80, 1×10^6 cells/ml
  MIC: 0.024 µg/mL (≈ 0.0666 µM)
[2]; NO.80, 1×10^8 cells/ml
  MIC: 0.05 µg/mL (≈ 0.139 µM)
[3]; 1×10^6 cells/ml
  Minimum Inhibitory Concentration: 0.05 µg/mL
[3]; Staphylococcus aureus, E46, 1×10^8 cells/ml
  MIC: 0.05 µg/mL (≈ 0.139 µM)
[4]; 1×10^6 cells/ml
  Minimum Inhibitory Concentration: 0.024 µg/mL
[4]; Staphylococcus aureus, B5, 1×10^8 cells/ml
  MIC: 0.024 µg/mL (≈ 0.0666 µM)
[5]; 1×10^6 cells/ml
  Minimum Inhibitory Concentration: 0.05 µg/mL
[5]; Staphylococcus aureus, 7447, 1×10^8 cells/ml
  MIC: 0.05 µg/mL (≈ 0.139 µM)
[6]; 1×10^6 cells/ml
  Minimum Inhibitory Concentration: 0.10 µg/mL
[6]; Staphylococcus aureus, 90124, 1×10^8 cells/ml
  MIC: 0.1 µg/mL (≈ 0.277 µM)
[7]; 1×10^6 cells/ml
  Minimum Inhibitory Concentration: 0.05 µg/mL
[7]; Staphylococcus epidermidis, ATCC12228, 1×10^8 cells/ml
  MIC: 0.05 µg/mL (≈ 0.139 µM)
[8]; IAM1313, 1×10^6 cells/ml
  MIC: 0.1 µg/mL (≈ 0.277 µM)
[8]; IAM1313, 1×10^8 cells/ml
  MIC: 0.2 µg/mL (≈ 0.555 µM)
[9]; 1×10^6 cells/ml
  Minimum Inhibitory Concentration: 0.39 µg/mL
[9]; Micrococcus luteus, PCI1001, 1×10^8 cells/ml
  MIC: 0.39 µg/mL (≈ 1.08 µM)
